# Measurements taken from patent publication US8362000B2, “Azetidinyl diamides as monoacylglycerol lipase inhibitors” (Janssen Pharmaceutica NV, priority 2009, dated 2013).
# Residue numbers refer to the chain shown, from its start. Where two headings read alike, the source gives them in different places.
# Tests used:
# MGL = target: T1, MGL (Rattus norvegicus, UniProt Q8R431); assay: 2-AG accumulation assay in rat brain homogenate; format: biochemical; settings: rat brain homogenate, 2-AG accumulation as percent of vehicle; for 2-AG accumulation, % of vehicle control at 1 µM: compound 1 μM, read-out: Rat Brain 2AG % VehCntrl (%) @ 1 μM; for 2-AG accumulation, % of vehicle control at 10 µM: compound 10 μM, read-out: Rat Brain 2AG % VehCntrl (%) @ 10 μM
# T1 construct: one g rat brain was homogenized using a Polytron homogenizer; from tissue; host or cells: rat brain homogenate
# T1 sequence (Q8R431 1-303): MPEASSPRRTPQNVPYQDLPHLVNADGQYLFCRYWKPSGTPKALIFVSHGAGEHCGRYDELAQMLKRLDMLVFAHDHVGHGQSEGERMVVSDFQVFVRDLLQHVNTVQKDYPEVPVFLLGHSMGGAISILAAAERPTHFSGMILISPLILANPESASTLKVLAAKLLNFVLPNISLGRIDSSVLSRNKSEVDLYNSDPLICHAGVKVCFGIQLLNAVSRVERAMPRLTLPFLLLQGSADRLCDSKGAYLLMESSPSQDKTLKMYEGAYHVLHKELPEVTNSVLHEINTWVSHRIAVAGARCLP
# mutant MGL = target: T2, mutant MGL (Homo sapiens, UniProt Q99685, L169S/L176S); assay: MGL ThermoFluor assay - mutant; format: binding
# T2 sequence (Q99685 1-303 L169S/L176S): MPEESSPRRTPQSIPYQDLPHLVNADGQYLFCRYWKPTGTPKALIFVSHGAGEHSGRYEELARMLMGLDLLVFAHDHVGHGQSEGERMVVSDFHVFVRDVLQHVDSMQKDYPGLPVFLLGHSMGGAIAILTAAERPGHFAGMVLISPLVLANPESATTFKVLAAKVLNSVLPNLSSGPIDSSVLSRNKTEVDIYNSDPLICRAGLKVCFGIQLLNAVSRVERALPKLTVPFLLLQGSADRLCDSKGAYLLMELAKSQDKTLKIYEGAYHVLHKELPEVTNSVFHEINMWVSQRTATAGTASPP
# [1] = target: T3, purified wild type MGL (wt-MGLL 6H-11-313) (Homo sapiens, UniProt Q99685)
# T3 sequence (Q99685 1-303): T2 sequence (Q99685 1-303 L169S/L176S) with S169L, S176L
# [2] = ThermoFluor thermal stability binding assay, read-out: MGL mutant ThermoFluor Kd
# [3] = ThermoFluor concentration-response, read-out: MGL mutant ThermoFluor Kd
# [4] = ThermoFluor, compound concentration measured by qNMR, read-out: MGL mutant ThermoFluor qKd (μM) (using qNMR conc.)
# [5] = compound concentration measured by qNMR, read-out: MGL mutant ThermoFluor qKd (using qNMR conc.)
Structure (SMILES),"2-AG accumulation, % of vehicle control at 1 µM (MGL)",IC50 [1],Kd (mutant MGL; [3]),other results
"O=C(c1cscn1)N1CCN(C2CN(C(=O)c3ccc(-c4ccc(F)c(Cl)c4)cc3Cl)C2)CC1 [Cpd 265, 1-{1-[(3,3′-Dichloro-4′-fluorobiphenyl-4-yl)carbonyl]azetidin-3-yl}-4-(1,3-thiazol-4-ylcarbonyl)piperazine]",162%,19 nM,–,"2-AG accumulation, % of vehicle control at 0.1 µM (MGL; compound 0.1 μM, read-out: Rat Brain 2AG % VehCntrl (%) @ 0.1 μM): 126%; 2-AG accumulation, % of vehicle control at 10 µM (MGL): 643%; Kd (mutant MGL; [2]): 0.0198 µM"
O=C(c1ccc2c(-c3cccc(C(F)(F)F)c3)c[nH]c2c1)N1CC(N2CCN(C(=O)c3cscn3)CC2)C1 [Cpd 1345],459%,< 5 nM,0.006 µM,–
Cc1cn(-c2ccccc2)c2ccc(C(=O)N3CC(N4CCN(C(=O)c5ccccc5)CC4)C3)cc12 [Cpd 577],207%,52 nM,–,Kd (mutant MGL; [4]): 0.026 µM
O=C(c1ccccc1)N1CCN(C2CN(C(=O)c3ccc(Oc4ncc(C(F)(F)F)cc4Cl)cc3)C2)CC1 [Cpd 507],190%,52 nM,0.317 µM,–
Cc1c(-c2ccccc2)oc2c(C(=O)N3CC(N4CCN(C(=O)c5nccs5)CC4)C3)cccc2c1=O [Cpd 476],–,338 nM,0.0667 µM,"2-AG accumulation, % of vehicle control at 10 µM (MGL): 272%"
O=C(c1cc2cc(-c3ccccc3)ccc2o1)N1CC(N2CCN(C(=O)c3nccs3)CC2)C1 [Cpd 1342],346%,< 5 nM,–,Kd (mutant MGL; [2]): 0.136 µM
O=C(c1ccc(-c2ccc(C(F)(F)F)s2)cc1)N1CC(N2CCN(C(=O)c3ccc[nH]3)CC2)C1 [Cpd 1138],271%,26 nM,0.018 µM,–
Cc1c(C(=O)N2CC(N3CCN(C(=O)c4nccs4)CC3)C2)n(C)c2ccc(Cl)cc12 [Cpd 696],444%,59 nM,–,"Kd (mutant MGL; ThermoFluor, compound concentration measured by qNMR, read-out: MGL mutant ThermoFluor qKd (using qNMR conc.)): 0.063 µM"
O=C(c1cc(-c2cccc(F)c2)cs1)N1CC(N2CCN(C(=O)c3nccs3)CC2)C1 [Cpd 1160],260%,45 nM,–,Kd (mutant MGL; [4]): 0.139 µM
O=C(c1ccc[nH]1)N1CCN(C2CN(C(=O)c3nn(-c4ccc(Cl)cc4Cl)c4c3CSC/C4=C\c3ccc(F)cc3)C2)CC1 [Cpd 1024],281%,69 nM,–,Kd (mutant MGL; [5]): 0.135 µM
"Cc1cc(C(=O)N2CC(N3CCN(C(=O)c4nccs4)CC3)C2)ccc1-c1ccccc1 [Cpd 1322, 1-{1-[(2-Methylbiphenyl-4-yl)carbonyl]azetidin-3-yl}-4-(1,3-thiazol-2-ylcarbonyl)piperazine]",457%,< 5 nM,0.002 µM,–
O=C(c1ccc2c(c1)CCN(C(=O)c1ccc[nH]1)C2)N1CC(N2CCN(C(=O)c3nccs3)CC2)C1 [Cpd 690],367%,46 nM,–,Kd (mutant MGL; [2]): 0.104 µM
O=C(c1ccc2c(ccn2-c2ccc(OC(F)(F)F)cc2)c1)N1CC(N2CCN(C(=O)c3cscn3)CC2)C1 [Cpd 1370],773%,< 5 nM,–,Kd (mutant MGL; [4]): 0.013 µM
CC(C)Cc1ccc(C(=O)N2CC(N3CCN(C(=O)c4nccs4)CC3)C2)cc1 [Cpd 891],422%,< 5 nM,0.008 µM,–
O=C(c1ccc2c(ccn2-c2cc(F)cc(F)c2)c1)N1CC(N2CCN(C(=O)c3nccs3)CC2)C1 [Cpd 1371],827%,< 5 nM,–,Kd (mutant MGL; [4]): 0.003 µM
"O=C(c1ccc(F)c(Cc2ccc(C(F)(F)F)cc2)c1)N1CC(N2CCN(C(=O)c3nccs3)CC2)C1 [Cpd 1007, 1-[1-({4-Fluoro-3-[4-(trifluoromethyl)benzyl]phenyl}carbonyl)azetidin-3-yl]-4-(1,3-thiazol-2-ylcarbonyl)piperazine]",180%,27 nM,0.259 µM,–
O=C(c1ccc2c(-c3ccccc3)c[nH]c2c1)N1CC(N2CCN(C(=O)c3nccs3)CC2)C1 [Cpd 1316],602%,< 5 nM,0.002 µM,–
O=C(c1cscn1)N1CCN(C2CN(C(=O)c3cccc4nc(-c5ccc(F)cc5)oc34)C2)CC1 [Cpd 1282],128%,2070 nM,–,Kd (mutant MGL; [2]): 0.2 µM
O=C(c1nn(-c2ccc(Cl)cc2Cl)c2c1CSC/C2=C\c1ccc(F)cc1)N1CC(N2CCN(C(=O)C(F)(F)F)CC2)C1 [Cpd 1022],189%,67 nM,0.228 µM,Kd (mutant MGL; [5]): 1.06 µM
"O=C(c1cscn1)N1CC(N2CCN(C(=O)c3cc4cc(C(F)(F)F)ccc4s3)CC2)C1 [Cpd 716, 1-[1-(1,3-Thiazol-4-ylcarbonyl)azetidin-3-yl]-4-{[5-(trifluoromethyl)-1-benzothiophen-2-yl]carbonyl}piperazine]",326%,140 nM,0.04 µM,–
"O=C(c1nccs1)N1CCN(C2CN(C(=O)c3cccc4c3ccn4-c3ccc(F)cc3)C2)CC1 [Cpd 1320, 1-(4-Fluorophenyl)-4-({3-[4-(1,3-thiazol-2-ylcarbonyl)piperazin-1-yl]azetidin-1-yl}carbonyl)-1H-indole]",823%,< 5 nM,–,Kd (mutant MGL; [4]): 0.015 µM
Cc1cc(C(=O)N2CCN(C3CN(C(=O)c4ccc(-c5ccccc5)cc4)C3)CC2)no1 [Cpd 1465],110%,> 16700 nM,–,Kd (mutant MGL; [2]): > 31.2 µM
O=C(c1csnn1)N1CC(N2CCN(C(=O)c3cc4cc(C(F)(F)F)ccc4s3)CC2)C1 [Cpd 753],173%,434 nM,0.515 µM,–
CCCCc1ccc(C(=O)N2CC(N3CCN(C(=O)c4nccs4)CC3)C2)cc1 [Cpd 894],534%,< 5 nM,0.006 µM,–
O=C(c1ccc2c(c1)CCN2c1ccc(F)cc1)N1CC(N2CCN(C(=O)c3ccc[nH]3)CC2)C1 [Cpd 1099],508%,12 nM,–,Kd (mutant MGL; [5]): 0.02 µM
O=C(c1ccc2c(c1)CCN2Cc1ccc(C(F)(F)F)cc1)N1CC(N2CCN(C(=O)c3nccs3)CC2)C1 [Cpd 882],697%,< 5 nM,0.012 µM,–
O=C(c1ccccc1)N1CCN(C2CN(C(=O)c3ccc4c(ccn4-c4cc(F)cc(F)c4)c3)C2)CC1 [Cpd 580],179%,69 nM,–,Kd (mutant MGL; [4]): 0.118 µM
Cc1cn(-c2cccc(F)c2)c2ccc(C(=O)N3CC(N4CCN(C(=O)c5nccs5)CC4)C3)cc12 [Cpd 1368],859%,< 5 nM,–,Kd (mutant MGL; [4]): 0.001 µM
